Consider 18 molecules from patent US10836743B2, “Fluorinated cyclopropylamine compound, preparation method therefor, pharmaceutical composition thereof, and uses thereof” (SHANGHAI INSTITUTE OF MATERIA MEDICA, CHINESE ACADEMY OF …, priority 2016, dated 2020).

For data set [1], the system named is human acute myeloid leukemia MV4-11 subcutaneous transplantation tumor. As to the kind of experiment: Growth of subcutaneous transplantation tumor in nude mice. It is filed as in vivo, Balb/c nude mice. The note with it: 21 days. From the text: Example 3 Evaluation of Chronic Efficacy at the Animal Level:
Inhibitory Effect of LSD1 Inhibitor on the Growth of Subcutaneous Transplantation Tumor in Nude Mice of Human Acute Myeloid Leukemia MV4-11 […]
Animals: Balb/c nude mice, female, weighing 17-20 g, were purchased from Beijing Weitong Lihua Experimental Animal Technology Co., Ltd., and the number of animals per group was 5.
Cell line: MV4-11 cell line was used to inoculate at the right axilla of the nude mice, and the inoculation amount was 5×10^6/animal. The experiment can start after the transplanted tumor was formed.
For female nude mice weighing 20±3 g, MV4-11 cells were inoculated into the right axilla of nude mice at a inoculation amount of 5×10^6/mouse. After tumor formation, the diameter of the transplanted tumor was measured with a vernier caliper. And after the tumor has grown into 100-300 mm^3, the animals were divided into model control group and drug-administered group according to body weight and tumor volume, with 5 mouse in each group. The model control group was given an equal amount of blank solvent. Oral gavage was used daily after grouping for 21 days.
Note: Wc: tumor weight of control group, WT: tumor weight of treatment group.
Data processing: Data were expressed as mean±standard deviation, and statistical methods were T-TEST two-tailed analysis for significant analysis.

The test system of another data set is leukemia cells MV4-11. The experiment in a line: Inhibitory activity on growth by MTS method. It is filed as cell-based. The following applies: Homo sapiens. The method, then: 2. Test of Inhibitory Activities of Compound on Growth by MTS Method Experimental Principle:
MTS assay detects the inhibitory effect of the tested compound to the growth of leukemia cells MV (4:11). The principle is that succinate dehydrogenase in mitochondria in living cells can reduce exogenous thiazole blue to insoluble blue crystal Formazan.
• 1. MV4-11 cells in logarithmic growth phase were accurately counted at 16000 cells/mL, and the diluted cell solution was added to 96-well plates at 90 μL per well. • 2. Fresh medium was taken and sequentially added to a 96-well plate with cell fluid at 90 μL per well. • 3. […] 2 μL of the diluted compound was respectively added to a 96-well plate containing 98 μL of blank medium, and for DMSO group, 98 μL of blank medium was added into 2 μL of DMSO, and mixed for further use. • 5. The compound mixed with the medium was separately added to a 96-well plate in which cells were plated, in triplicate, 20 μL per well, and were mixed. The blank group was added with 200 μL of IMDM medium, and the DMSO group was added with 180 μL of the cell-containing medium in DMSO diluted with the medium. • 6. […]
(Tetrazolium assays rely on reduction of a dye to a coloured formazan, in cell work by metabolically active cells.)

The nature of data set [2]: Pharmacokinetic experiment in mouse. The following applies: plasma.
The mark [3] stands for this setting: 72 h, MV4-11, 3 days, read-out: MTS 3 D.
The mark [4] stands for this setting: 240 h, MV4-11, 10 days, read-out: MTS 10 D.

SMILES strings stand for the structures. Where “and” joins values, the source holds several entries; their conditions need not be identical. Equal values may be shown once. Read-outs that look alike come from different tables or passages of the source.

`O=C(OCc1ccccc1)N1CCC(F)(CNC2CC2c2ccccc2)CC1` (stereo not drawn) [Example A1, Benzyl 4-fluoro-4-((trans-2-phenylcyclopropyl)amino)methyl)piperidine-1-carboxylate]: in data set [1] (50 mg/kg qd p.o.), the “Tumor inhibition rate (%)” value came to 53.70%; the “Tumor weight (g) mean ± SD” value is listed as 0.53 ± 0.68 g; the “Tumor weight (g), individual animals 1-5” value was 0.05 g and 1.82 g and 0.07 g and 0.61 g and 0.11 g. Besides, the IC50 in the data set on leukemia cells MV4-11 (setting [3]) is over 20 µM. Moreover, in the data set with leukemia cells MV4-11 (setting [4]), the IC50 was 0.037 ± 0.012 µM. Moreover, in data set [2] (iv, 10 mg/kg), the area under the curve AUC(0-inf) (in general, total exposure, with the tail of the curve extrapolated) is 14700 ng·h/mL; the AUC(0-t) (commonly exposure summed from dosing to a finite time, without extrapolation to infinity) is 14600 ng·h/mL; the highest level (Cmax) was 16700 ng/mL; the MRT inf (as a rule, the average time that molecules of a dose stay in the body) stood at 3.77 h. Moreover, in data set [2] (iv, 10 mg/kg), the Tmax (in general, the time from dosing to the highest level) turned out to be 0.083 h; the Vd (commonly a proportionality between amount in the body and measured concentration, not a real space) was 2.56 L/kg; the clearance (usually a measure of how efficiently the substance is removed, as volume per time) stood at 11.3 mL/min/kg; the half-life (commonly the time in which the quantity being followed falls by half) was 3.39 h. In data set [2] (po), the AUC(0-inf) stood at 12900 ng·h/mL; the AUC(0-t) is 11400 ng·h/mL; the peak concentration (Cmax) (as a rule, the maximum level reached in the sampled fluid or tissue) stood at 7200 ng/mL; the MRT inf amounted to 10.2 h. Besides, in data set [2] (po), the Tmax was 0.083 h; the bioavailability (commonly the share of a dose that reaches the circulation, judged against a reference dose that is usually intravenous) was 43.7%; the half-life is 9.1 h.
With `O=C(OCC1CCNCC1)N1CCC(F)(CN[C@@H]2C[C@H]2c2ccccc2)CC1` (relative stereo) [Example A43, Piperidin-4-ylmethyl 4-fluoro-4-(((trans-2-phenylcyclopropyl)amino)methyl)piperidine-1-carboxylate], in data set [1] (5 mg/kg qd p.o.), the “Tumor inhibition rate (%)” value stood at 63.21%; the “Tumor weight (g) mean ± SD” value was determined as 0.39 ± 0.31 g; the “Tumor weight (g), individual animals 1-5” value is 0.68 g and 0.65 g and 0.59 g and 0.02 g and 0.01 g. Also, the IC50 in the data set with leukemia cells MV4-11 (setting [3]) was over 20 µM. In data set [2] (iv, 10 mg/kg), the AUC(0-inf) was determined as 890 ng·h/mL, the exposure AUC(0-t) is 878 ng·h/mL, the MRT inf was found to be 1.24 h and the distribution volume (Vd) amounted to 14 L/kg. In data set [2] (iv, 10 mg/kg), this molecule registered a clearance of 187 mL/min/kg. In data set [2] (po), the AUC(0-inf) worked out at 1230 ng·h/mL, the AUC(0-t) was found to be 1230 ng·h/mL, the Cmax is 867 ng/mL and the MRT inf amounted to 1.54 h. Also, in data set [2] (po), the Tmax was 0.25 h and the bioavailability is 70%.
Turning to `N#Cc1ccc(C#Cc2ccc(C3CC3NCC3(F)CCN(C(=O)OCC4CCNCC4)CC3)s2)cc1` (stereo not drawn) [Example A114, Piperidin-4-ylmethyl 4-(((2-(5-((4-cyanophenyl)ethynyl)thiophen-2-yl)cyclopropyl)amino)methyl)-4-fluoropiperidine-1-carboxylate], the values for the IC50 with leukemia cells MV4-11 (setting [3]) and with leukemia cells MV4-11 (setting [4]) were 15.3 ± 0.78 µM and 7.84 ± 0.35 µM, respectively.
For `O=S(=O)(CC1CCNCC1)N1CCC(F)(CNC2CC2c2ccccc2)CC1` (stereo not drawn) [Example A92, N-((4-Fluoro-1-(piperidin-4-ylmethyl)sulfonyl)piperidin-4-yl)methyl)-trans-2-phenylcyclopropylamine], the IC50 is over 20 µM in the data set on leukemia cells MV4-11 (setting [3]) and 0.132 ± 0.055 µM with leukemia cells MV4-11 (setting [4]).
For the molecule `CCc1ccc(Oc2ccc(C3CC3NCC3(F)CCN(C(=O)OCC4CCNCC4)CC3)cn2)cc1` (stereo not drawn) [Example A116], the IC50 in the data set with leukemia cells MV4-11 (setting [3]) was determined as 19.4 ± 7.38 µM; with leukemia cells MV4-11 (setting [4]) it was 7.41 ± 2.53 µM.
Turning to `O=C(OCC1CCN(Cc2ccccc2)CC1)N1CCC(F)(CN[C@@H]2C[C@H]2c2ccccc2)CC1` (relative stereo) [Example A90, (1-Benzylpiperidin-4-yl)methyl 4-fluoro-4-(((trans-2-phenylcyclopropyl)amino)methyl)piperidine-1-carboxylate], the IC50 with leukemia cells MV4-11 (setting [3]) is over 20 µM. Also, the IC50 with leukemia cells MV4-11 (setting [4]) turned out to be 0.03 ± 0.006 µM. Moreover, in data set [2] (iv, 10 mg/kg), the AUC(0-inf) turned out to be 2760 ng·h/mL, the AUC(0-t) stood at 2740 ng·h/mL, the MRT inf is 4 h and the Vd amounted to 14.7 L/kg. In data set [2] (iv, 10 mg/kg), the clearance worked out at 60.4 mL/min/kg and the half-life is 3.99 h. Also, in data set [2] (po), the area under the curve AUC(0-inf) worked out at 5480 ng·h/mL, the AUC(0-t) was 5220 ng·h/mL, the Cmax is 3480 ng/mL and the mean residence time MRT inf worked out at 2.52 h. For the same molecule, in data set [2] (po), the time of peak concentration (Tmax) came to 0.167 h, the bioavailability was found to be 95.3% and the half-life is 1.93 h.
In the case of `O=C(OCC1CCNCC1)N1CCC(F)(CNC2CC2c2ccc(C3CC3)s2)CC1` (stereo not drawn) [Example A113, Piperidin-4-ylmethyl 4-(((2-(5-cyclopropylthien-2-yl)cyclopropyl)amino)methyl)-4-fluoropiperidine-1-carboxylate], the IC50 with leukemia cells MV4-11 (setting [3]) and with leukemia cells MV4-11 (setting [4]) was over 20 µM each time.
`O=C(OCC1CCN(Cc2ccccc2)CC1)N1CCC(F)(CN[C@@H]2C[C@H]2c2ccccc2)CC1` [(1R,2S)-A90]: in data set [1] (10 mg/kg qd p.o.), the “Tumor inhibition rate (%)” value stood at 85.47%; the “Tumor weight (g) mean ± SD” value is recorded as 0.15 ± 0.14 g; the “Tumor weight (g), individual animals 1-5” value is 0.27 g and 0.01 g and 0.37 g and 0.08 g and 0.04 g. Also, in data set [2] (iv, 10 mg/kg), the total exposure AUC(0-inf) was 4840 ng·h/mL, the AUC(0-t) amounted to 4830 ng·h/mL, the MRT inf turned out to be 2.93 h and the Vd amounted to 6.05 L/kg. In data set [2] (iv, 10 mg/kg), this molecule had a clearance of 34.4 mL/min/kg and a half-life of 3.23 h. In data set [2] (po), this molecule registered an AUC(0-inf) of 7430 ng·h/mL, an area under the curve AUC(0-t) of 7220 ng·h/mL, a Cmax of 2950 ng/mL and an MRT inf of 5.46 h. Also, in data set [2] (po), the Tmax came out at 0.25 h, the bioavailability came out at 74.8% and the half-life is 5.15 h.
Regarding `FC1(CN[C@@H]2C[C@H]2c2ccccc2)CCN(CCCC2CCCCC2)CC1` (relative stereo) [Example A14, N-((1-(3-Cyclohexylpropyl)-4-fluoropiperidin-4-yl)methyl)-trans-2-phenylcyclopropylamine], the IC50 stood at 8.17 ± 0.35 µM in the data set on leukemia cells MV4-11 (setting [3]) and 13 ± 0.42 µM in the data set with leukemia cells MV4-11 (setting [4]).
As for `CC(C)(C)OC(=O)c1ccc(CN2CCC(F)(CNC3CC3c3ccc(-c4cccc5ccccc45)s3)CC2)cc1` (stereo not drawn) [Example A109, tert-Butyl 4-((4-fluoro-4-(((2-(5-(naphthalen-1-yl)thiophen-2-yl)cyclopropyl)amino)methyl)piperidine-1-yl)methyl)benzoate], the figures for the IC50 in the data set on leukemia cells MV4-11 (setting [3]) and in the data set with leukemia cells MV4-11 (setting [4]) were 2.1 ± 0.12 µM and 4.7 ± 1.68 µM, respectively.
As to `O=C(OCC1CCNCC1)N1CCC(F)(CNC2CC2c2ccc(-c3ccc(C(F)(F)F)cc3)s2)CC1` (stereo not drawn) [Example A110, Piperidin-4-ylmethyl 4-fluoro-4-(((2-(5-(4-(trifluoromethyl)phenyl)thiophen-2-yl)cyclopropyl)amino)methyl) piperidine-1-carboxylate], the IC50 with leukemia cells MV4-11 (setting [3]) is 2.59 ± 0.14 µM; in the data set on leukemia cells MV4-11 (setting [4]) it was 5.93 ± 0.35 µM.
Take `CC(C)(C)OC(=O)c1ccc(CN2CCC(F)(CNC3CC3c3ccc(-c4ccc(Cl)cc4)s3)CC2)cc1` (stereo not drawn) [Example A106]: the IC50 in the data set on leukemia cells MV4-11 (setting [3]) came out at 1.71 ± 0.22 µM; in the data set on leukemia cells MV4-11 (setting [4]) it was 9.99 ± 1.5 µM.
With `O=C(OCC1CCNCC1)N1CCC(F)(CNC2CC2c2ccc(Br)s2)CC1` (stereo not drawn) [Example A111, Piperidin-4-ylmethyl 4-(((2-(5-bromothien-2-yl)cyclopropyl)amino)methyl)-4-fluoropiperidine-1-carboxylate], the IC50 was over 20 µM in the data set on leukemia cells MV4-11 (setting [3]) and 19.9 ± 0.86 µM in the data set with leukemia cells MV4-11 (setting [4]).
For the molecule `CS(=O)(=O)c1ccc(CN2CCC(F)(CN[C@@H]3C[C@H]3c3ccccc3)CC2)cc1` (relative stereo) [Example A16, N-((4-Fluoro-1-(4-(methylsulfonyl)benzyl)piperidin-4-yl)methyl)-trans-2-phenylcyclopropylamine], the IC50 in the data set on leukemia cells MV4-11 (setting [3]) is over 20 µM.
Regarding `CS(=O)(=O)N1CCC(F)(CN[C@@H]2C[C@H]2c2ccccc2)CC1` (relative stereo) [Example A93, N-((4-Fluoro-1-(methylsulfonyl)piperidin-4-yl)methyl)-trans-2-phenylcyclopropylamine], the results for the IC50 with leukemia cells MV4-11 (setting [3]) and with leukemia cells MV4-11 (setting [4]) were over 20 µM and 0.239 ± 0.004 µM, respectively.
Regarding `O=C(O)c1ccc(CN2CCC(F)(CNC3CC3c3ccc(Br)s3)CC2)cc1` (stereo not drawn) [Example A102], the IC50 with leukemia cells MV4-11 (setting [3]) and in the data set on leukemia cells MV4-11 (setting [4]) was over 20 µM in each case.
As to `CN1CCC(F)(CN[C@@H]2C[C@H]2c2ccccc2)CC1` (relative stereo) [Example A15, N-((4-Fluoro-1-methylpiperidin-4-yl)methyl)-trans-2-phenylcyclopropylamine], the IC50 in the data set on leukemia cells MV4-11 (setting [3]) was over 20 µM; in the data set with leukemia cells MV4-11 (setting [4]) it was 0.33 ± 0.16 µM.
Take `CC(C)(C)OC(=O)c1ccc(CN2CCC(F)(CNC3CC3c3ccc(Br)s3)CC2)cc1` (stereo not drawn) [Example A101, Tert-Butyl 4-((4-(((2-(5-bromothien-2-yl))cyclopropyl)amino)methyl)-4-fluoropiperidin-1-yl)methyl)benz Oate]: the IC50 is 2.21 ± 0.63 µM with leukemia cells MV4-11 (setting [3]) and over 20 µM with leukemia cells MV4-11 (setting [4]).
